Like-named read-outs stand apart in the source and are kept apart here.
Assays:
[1] = Cytotoxicity assay: L-6 cells; assay type: cell-based; settings: rat skeletal myoblast (L6 cells); means of two independent assays
Experimental: The pure compounds cytotoxicity was assessed against L6 cells as described in ref. [27].

T. cruzi amastigotes [2] = assay: Activity against intracellular T. cruzi amastigotes; assay type: cell-based, Trypanosoma cruzi; settings: for Selectivity index: SI = IC50 cytotoxicity/IC50 against T. cruzi; for IC50: Trypanosoma cruzi, read-out: IC50 T. cruzi amastigotes; for activity against T. cruzi (in words): intracellular amastigotes
Description: The bioactivity of isolated compounds against intracellular T. cruzi amastigotes grown in rat L6 […] is presented in Table 1. […] Rotenone and deguelin are known to be strong mitochondrial complex I (also known as NADH:ubiquinone oxidoreductase) inhibitors,[43–45] while different activities between closely related rotenoids (rotenone, 5′-α-epirotenone, and 5′-β-epirotenone) has already been shown. […] The variation in activity observed on our rapidly generated series of structural analogs points in the same direction. As shown in Fig. 3 and Table 1, the cyclic and bent form of the rotenoid at the B/C ring junction is essential for activity, since compounds 40 and 41 were not active.
The pure compounds activity was assessed against T. cruzi amastigotes as described in ref. [27].

T. cruzi amastigotes [3] = settings: commercial standards; cited from earlier work
[4] = test system: L6 cells (rat skeletal myoblast); settings: commercial standards; cited from earlier work
Haemonchus contortus = settings: cited from earlier work
[5] = intracellular amastigotes grown in rat L6 cells, means of two independent assays

Compound | IC50 [1] [µM] | Selectivity index (T. cruzi amastigotes [2]) | IC50 (T. cruzi amastigotes [2]; [5]) [µM] | IC50 against the amastigote form of the parasite (T. cruzi amastigotes [3]) | toxicity to the host cell [4] | nematocidal activity (Haemonchus contortus) | activity against T. cruzi (in words) (T. cruzi amastigotes [2]) | IC50 (T. cruzi amastigotes [2]; L6, in Rattus norvegicus) [µM]
CC(C)=CCc1cc2c(cc1O)OCC(c1ccc(O)cc1)C2O (stereo not shown) [Compound 2, bavaisoflavanol] | 49.5 | 1.1 | 43.1 |  |  |  |  | 
CC(C)=CCc1c(O)cc2occ(-c3ccc(O)cc3)c(=O)c2c1O [Compound 27, wighteone] | 104 | 2.2 | 46.6 |  |  |  |  | 
COc1cc2c(cc1OC)[C@]1(O)[C@H](OC(C)=O)c3ccc4occc4c3O[C@@H]1CO2 (relative stereo) [Compound 33, 12-deoxo-12α-acetoxy-12a-β-hydroxyelliptone] | 98.2 | 1.5 | 65.1 |  |  |  |  | 
Oc1ccc2c(c1)OC[C@H]1c3cc4c(cc3O[C@@H]21)OCO4 [Compound 16, maackiain] | 156 | 1.3 | 119 |  |  |  |  | 
COc1cc2c(cc1OC)[C@@H]1C(=O)c3ccc4c(c3O[C@@H]1CO2)C=CC(C)(C)O4 [Compound 39, deguelin] | 19.4 | 1148.5 | 0.02 | nanomolar | without toxicity | potent nematocidal activity |  | 
COc1cc2c(cc1-c1coc3cc4occc4cc3c1=O)OCO2 [Compound 28, dehydroneotenone] | 18.3 | 5.1 | 3.59 |  |  |  |  | 
COc1cc([C@@H]2c3cc4c(cc3[C@H](O)[C@H]3COC(=O)[C@H]23)OCO4)cc(OC)c1OC [Podophyllotoxin, reference compound] | 0.02 |  |  |  |  |  |  | 
O=C(Cn1ccnc1[N+](=O)[O-])NCc1ccccc1 [Benznidazole, reference compound] |  |  | 3.14 |  |  |  |  | 
COc1cc2c(cc1C1COc3cc(O)ccc3C1)OCO2 (stereo not shown) [Compound 5, astraciceran] | 75.4 | 0.8 | 94.1 |  |  |  |  | 
C=C(C)[C@H]1Cc2cc3c(cc2O1)OC[C@H]1c2cc4c(cc2O[C@@H]31)OCO4 [Compound 17, emoroidocarpan] | 84.8 | 1.8 | 47.8 |  |  |  |  | 
CC1(C)C=Cc2c(ccc3c(=O)c(-c4cc(O)c5c(c4)OCO5)coc23)O1 [Compound 40, norisojamaicin] | 123 | 5.7 | 21.8 |  |  |  | not active | 
CC1(C)C=Cc2c(ccc(-c3coc4cc(O)c(O)cc4c3=O)c2O)O1 [Compound 21, 5′,6,7-trihydroxy-2′,2′-dimethyl-2′H,4H-[3,6′-bichromen]-4-one] | 76.6 | 1.4 | 56.8 |  |  |  |  | 
COc1cc2c(cc1OC)[C@]1(O)C(=O)c3cc4ccoc4cc3O[C@@H]1CO2 (relative stereo) [Compound 31, 12a-hydroxyerosone] | 113 | 5.7 | 19.7 |  |  |  |  | 
CC(C)=CCc1c(O)ccc(C(=O)/C=C/c2ccc(O)cc2)c1O [Compound 7, isobavachalcone] | 104 | 1.7 | 60.1 |  |  |  |  | 
CC(=O)OC(C1COc2ccc3c(c21)OC(c1ccc(O)cc1)CC3=O)C(C)(C)O (stereo not shown) [Compound 12, 2-hydroxy-1-(2-(4-hydroxyphenyl)-4-oxo-3,4,8,9-tetrahydro-2H-furo[2,3-h]chromen-9-yl)-2-methylpropyl acetate] | 99.4 | 1.7 | 58.8 |  |  |  |  | 
CC1(C)C=Cc2c(ccc(-c3coc4cc(O)ccc4c3=O)c2O)O1 [Compound 20, glabrone] | 186 | 1.2 | 149 |  |  |  |  | 
COc1c(C(=O)/C=C(\O)c2ccccc2)ccc2occc12 [Compound 8, pongamol] | 73.6 | 2.7 | 26.8 |  |  |  |  | 
COc1ccc(-c2coc3cc(OC)c(O)cc3c2=O)cc1 [Compound 25, alfalone] | 263 | 1.1 | 241 |  |  |  |  | 
CC(=O)OC(C1COc2ccc3c(c21)OC(c1ccccc1)CC3=O)C(C)(C)O (stereo not shown) [Compound 13, 2-hydroxy-2-methyl-1-(4-oxo-2-phenyl-3,4,8,9-tetrahydro-2H-furo[2,3-h]chromen-9-yl)propyl acetate] | 131 | 1.1 | 123 |  |  |  |  | 
COc1cc2c(cc1OC)[C@@H]1C(=O)c3ccc4occc4c3O[C@@H]1CO2 [Compound 35, elliptone] | 99 | 5.4 | 18.2 |  |  |  |  | 
O=C1c2cc3ccoc3cc2O[C@@H]2COc3cc4c(cc3[C@]12O)OCO4 (relative stereo) [Compound 30, 12a-hydroxydolineone] | 141 | 0.7 | 195 |  |  |  |  | 

Compound | IC50 [1] [µM] | Selectivity index (T. cruzi amastigotes [2]) | IC50 (T. cruzi amastigotes [2]; [5]) [µM] | IC50 against the amastigote form of the parasite (T. cruzi amastigotes [3]) | toxicity to the host cell [4] | nematocidal activity (Haemonchus contortus) | activity against T. cruzi (in words) (T. cruzi amastigotes [2]) | IC50 (T. cruzi amastigotes [2]; L6, in Rattus norvegicus) [µM]
COc1cc2c(cc1OC)[C@]1(O)C(=O)c3ccc4c(c3O[C@@H]1CO2)C=CC(C)(C)O4 [Compound 38, tephrosin] | 72.4 | 1937.0 |  |  |  |  |  | 0.04
C=C(CO)C1Cc2cc3c(cc2O1)OCC1c2cc4c(cc2OC31)OCO4 (stereo not drawn) [Compound 18, (2′R)-4′-hydroxyemoroidocarpan] | 118 | 2.9 | 40.1 |  |  |  |  | 
C=C(C)[C@H]1Cc2cc3c(cc2O1)oc(=O)c1c2cc4c(cc2oc31)OCO4 [Compound 19, tephcalostan] | 119 | 1.8 | 65.6 |  |  |  |  | 
COc1cc2c(cc1OC)[C@]1(O)C(=O)c3ccc4occc4c3O[C@@H]1CO2 [Compound 36, 12a-hydroxyelliptone] | 100 | 18.5 | 5.42 |  |  |  |  | 
COc1cc2c(cc1OC)[C@@H]1C(=O)c3cc4ccoc4cc3O[C@@H]1CO2 (relative stereo) [Compound 32, erosone] | 115 | 2.9 | 39.3 |  |  |  |  | 
COc1c2c(cc3ccoc13)C(=O)[C@@]1(O)c3cc4c(cc3OC[C@H]1O2)OCO4 (relative stereo) [Compound 29, 12a-hydroxypachyrhizone] | 125 | 1.3 | 93.2 |  |  |  |  | 
CC(C)=CCc1cc2c(cc1O)OC[C@@H](c1ccc(O)cc1O)C2 [Compound 3, manuifolin H] | 106 | 3.7 | 28.3 |  |  |  |  | 
C=C(C)[C@H]1Cc2c(ccc3c2O[C@@H]2COc4cc(OC)c(OC)cc4[C@@H]2C3=O)O1 [Compound 37, rotenone] | 0.48 | 51.7 |  | nanomolar | without toxicity | potent nematocidal activity |  | 0.01
COc1ccc(-c2coc3cc(O)ccc3c2=O)cc1 [Compound 22, formononetin] | 224 | 1.0 | 217 |  |  |  |  | 
COc1cc2occ(-c3ccc4c(c3)OCO4)c(=O)c2cc1O [Compound 24, acicerone] | 186 | 2.1 | 86.8 |  |  |  |  | 
O=c1cc(-c2ccccc2)oc2c1ccc1occc12 [Compound 10, lanceolatin B] | 130 | 13.6 |  |  |  |  |  | 9.58
CC(C)(O)C(OC(=O)C=Cc1ccccc1)C1COc2ccc3c(c21)OC(c1ccccc1)CC3=O (stereo not shown) [Compound 14, 2-hydroxy-2-methyl-1-(4-oxo-2-phenyl-3,4,8,9-tetrahydro-2H-furo[2,3-h]chromen-9-yl)propyl cinnamate] | 81.6 | 5.1 | 16 |  |  |  |  | 
C=C(C)/C=C/c1c(OC)ccc2c1OC(c1ccccc1)CC2=O (stereo not shown) [Compound 9, dehydroisoderricin] | 95.4 | 1.4 | 66.2 |  |  |  |  | 
COc1cc(O)ccc1C1COc2cc(O)ccc2C1 (stereo not shown) [Compound 4, 7,4′-dihydroxy-2′-methoxyisoflavan] | 358 | 1.4 | 247 |  |  |  |  | 
COc1c(-c2coc3cc4c(cc3c2=O)C=CC(C)(C)O4)ccc2c1C=CC(C)(C)O2 [Compound 23, munetone] | 38.8 | 5.3 | 7.35 |  |  |  |  | 
COc1ccc(-c2coc3c4c(cc(O)c3c2=O)OC(C)(C)C=C4)cc1O [Compound 41, 3′-hydroxy-4′-O-metyhlerrone] | 55.7 | 6.9 | 8.04 |  |  |  | not active | 
COc1cc2c(cc1OC)C1C(CO2)Oc2c(ccc3occc23)C1OC(C)=O (stereo not drawn) [Compound 34, 12-deoxo-12α-acetoxyelliptone] | 104 | 3.8 | 27.1 |  |  |  |  | 
COc1cc(O)ccc1C1COc2cc3c(cc2C1)CC(C(C)(C)O)O3 (stereo not shown) [Compound 6, 4-(2-(2-hydroxypropan-2-yl)-2,3,6,7-tetrahydro-5H-furo[3,2-g]chromen-6-yl)-3-methoxyphenol] | 154 | 0.8 | 203 |  |  |  |  | 
COc1cc(O)ccc1[C@@H]1COc2cc(O)c(CC=C(C)C)cc2C1 [Compound 1, 2′-O-methylmanuifolin H] | 99 | 3.5 | 28.2 |  |  |  |  | 
CC(=O)OC1C2c3c(ccc4c3OC(c3ccccc3)CC4=O)OC2OC1(C)C (single isomer, unassigned; (-)) [Compound 11, (−)-purpurin] | 6.25 | 3.5 | 1.78 |  |  |  |  | 

Reference: PMC12062876, “Efficient constitution of a library of rotenoid analogs active against Trypanosoma cruzi from a digitalized plant extract collection” (RSC Advances, 2025)
